Reference: patent US20110003692A1, “HERBICIDALLY AND INSECTICIDALLY ACTIVE PHENYL-SUBSTITUTED PYRIDAZINONES” (BAYER CROPSCIENCE AG, priority 2008, published 2011)

Experiments:
[1] = tested on: eggs from the tobacco budworm (Heliotis virescens); assay: Heliothis virescens test (spray treatment); assay type: in vivo; conditions: application rate 500 g/ha, spray on soybean leaves, after 7 days
Method: • 78.0 parts by weight of acetone • 1.5 parts by weight of dimethylformamide Emulsifier: 0.5 part by weight of alkylaryl polyglycol ether
To produce a suitable preparation of active compound, 1 part by weight of active compound is mixed with the stated amounts of solvents and emulsifier, and the concentrate is diluted with emulsifier-containing water to the desired concentration. Soybean leaves (Glycine max.) are sprayed with an active compound preparation of the desired concentration and populated with eggs from the tobacco budworm (Heliotis virescens). After 7 days, the effect in % is determined. 100% means that all eggs have been killed, 0% means that no eggs have been killed.

Row | melting point | SMILES | effect in % (eggs killed) [1]
1 | – | CC(C)(C)n1ncc(O)c(-c2ccc(Cl)cc2Cl)c1=O [I-1-a-5] | at least 80%
2 | 176 °C | COc1cnn(C)c(=O)c1-c1ccc(Cl)c(Cl)c1 [I-1-h-1, 4-(3,4-dichlorophenyl)-5-methoxy-2-methyl-3(2H)-pyridazinone] | –
